Series [1] deals with COX2/PGE2. Description: Effect of dapansutrile on COX2/PGE2. The conditions noted are these: immunosuppressive pathway in PDAC.
The conditions of series [2]: healthy subjects, oral; cited from earlier work.
For series [3], the system named is KPC cells, a murine PDAC cell line. Description: Orthotopic KPC pancreatic cancer model in mice, dapansutrile diet (Example 1). It is filed as in vivo, C57BL/6 male mice. The note with it: dapansutrile diet 7.5 g/kg food ad libitum from surgery, sacrifice after 21 days, vs standard diet. The procedure:
C57BL/6 male mice (8 weeks old) were purchased from Jackson Laboratories (Bar Harbor, ME). Mice were anesthetized and following opening the abdominal cavity, the tip of pancreatic tail was gently grasped, and the pancreas/spleen was externalized in a lateral direction, exposing the entire pancreatic body and spleen. 100,000 KPC cells, a murine PDAC cell line, were mixed 1:1 with Matrigel (VF=20 μl) and injected into the tail of the pancreas. The pancreas was then gently internalized with blunt forceps and the abdominal muscle layer, and the skin was closed separately with absorbable sutures.
Following the initial injections of KPC cells, tumor bearing mice were monitored daily until the sacrifice after 21 days. At sacrifice, tumor volume and weight were assessed in the vehicle (n=16) and OLT1177® (dapansutrile)-treated mice (n=16).
From the date of surgery, mice were treated with oral dapansutrile via feed pellets ad libitum. The composition of the food is the standard mouse chow enriched with 7.5 gr of dapansutrile per kilogram of food. […]
At sacrifice, tumor volume in different groups was calculated using the modified ellipsoidal formula V=(LW^2)/2, where L is the length of the longest tumor dimension parallel to the skin containing the tumor midpoint, W is the length of the tumor dimension perpendicular to L and parallel to the skin, and V is tumor volume in cubic millimeters (mm^3).

For series [4] the test system is unchanged. Description: Orthotopic KPC pancreatic cancer model in mice, dapansutrile and gemcitabine combination (Example 2). Format: in vivo, C57BL/6 male mice. The conditions noted are these: sacrifice after 21 days; gemcitabine 100 mg/kg i.p. every three days from day 10; dapansutrile diet; vs PBS vehicle (combination also vs monotherapies). The procedure:
Tumor-bearing mice were prepared according to Example 1 and monitored daily until the sacrifice after 21 days.
Mice treated with dapansutrile were fed with dapansutrile by the same protocol as described in Example 1.
Control mice received PBS
At sacrifice, tumor volume and tumor weight were assessed in the 4 groups of mice.

The test system of series [5] is non-immune cells. Description: Effect of dapansutrile on non-immune cell proliferation.
Series [6] addresses NLRP3 inflammasome (Homo sapiens, UniProt Q96P20). The conditions noted are these: cited from earlier work.

Sequence of NLRP3 inflammasome (Q96P20 whole entry): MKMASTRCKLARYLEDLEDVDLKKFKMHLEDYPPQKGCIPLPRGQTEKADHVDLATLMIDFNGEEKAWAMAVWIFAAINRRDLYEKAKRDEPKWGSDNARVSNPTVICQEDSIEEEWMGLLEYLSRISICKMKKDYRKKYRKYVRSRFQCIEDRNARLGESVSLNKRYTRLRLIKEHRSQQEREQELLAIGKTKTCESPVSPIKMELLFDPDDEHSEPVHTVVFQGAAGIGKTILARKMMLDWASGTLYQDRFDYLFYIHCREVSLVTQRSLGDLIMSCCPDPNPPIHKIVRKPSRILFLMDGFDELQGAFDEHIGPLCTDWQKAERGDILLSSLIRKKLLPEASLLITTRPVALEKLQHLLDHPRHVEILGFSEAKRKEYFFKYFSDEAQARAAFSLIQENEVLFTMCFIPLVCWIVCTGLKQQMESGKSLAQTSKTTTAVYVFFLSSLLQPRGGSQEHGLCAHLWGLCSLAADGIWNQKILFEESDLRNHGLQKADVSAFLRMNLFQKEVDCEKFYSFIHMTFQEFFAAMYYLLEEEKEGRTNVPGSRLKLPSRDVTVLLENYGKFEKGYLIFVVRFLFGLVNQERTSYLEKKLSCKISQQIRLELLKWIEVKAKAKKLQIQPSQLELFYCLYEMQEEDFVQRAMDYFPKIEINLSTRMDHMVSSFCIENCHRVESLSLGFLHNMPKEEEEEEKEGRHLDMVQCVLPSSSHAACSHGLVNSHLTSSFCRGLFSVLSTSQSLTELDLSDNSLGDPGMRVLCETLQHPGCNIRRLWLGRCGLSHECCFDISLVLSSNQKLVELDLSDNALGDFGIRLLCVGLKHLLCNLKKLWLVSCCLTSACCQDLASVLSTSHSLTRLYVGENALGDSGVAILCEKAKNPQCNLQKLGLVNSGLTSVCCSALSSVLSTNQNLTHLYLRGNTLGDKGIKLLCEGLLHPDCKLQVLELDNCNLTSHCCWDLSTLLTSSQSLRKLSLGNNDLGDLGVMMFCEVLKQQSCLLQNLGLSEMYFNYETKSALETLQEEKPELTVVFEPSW

As to `CS(=O)(=O)CCC#N` [dapansutrile, 3-methanesulfonyl-propionitrile], in series [1], the COX2/PGE2 result was “significant reduction”. The “safety when orally administered” value in series [2] is “safe”. For the same compound, the tumor volume entry is “reduced tumor volume” in series [3] (p<0.0001) and “significant reduction” in series [4]. Also, the tumor weight entry in series [3] (p<0.01) is given as “reduced tumor weight”; in series [4] it was “significant reduction”. In addition, the non-immune cells proliferation entry in series [5] is “no effect”. Further, in series [6], the “inhibition of the NLRP3 inflammasome” value is on record as “selectively inhibit”.
On to `Nc1ccn([C@@H]2O[C@H](CO)[C@@H](O)C2(F)F)c(=O)n1` [gemcitabine, Gemcitabine, reference compound], for which the tumor weight result in series [4] is “significant reduction”.

The values are drawn from patent US20240358669A1, “METHODS FOR TREATING PANCREATIC CANCER” (Olatec Therapeutics, Inc., priority 2022, published 2024).
